For 5 compounds, Ki results are on record in patent US8530486B2, “Quinazolines and related heterocyclic compounds, and their therapeutic use” (Vereniging Voor Christelijk Hoger Onderwijs, …, priority 2008, dated 2013).

The assay deals with T1, human H4 receptor (Homo sapiens, UniProt Q9H3N8).
T1 construct: expressed in transfected cells; host or cells: HEK 293T cells, transient transfection with polyethyleneimine
The experiment in a line: [3H]Histamine binding assay (radioligand displacement at the human H4 receptor). To be noted: [3H]histamine displacement, membranes of HEK 293T cells transfected with human H4R; read-out: Activity Class* (Ki in H4 binding assay). (In general: In a radioligand displacement assay an active substance lowers the binding of a labelled ligand.)

T1 sequence (Q9H3N8 whole entry): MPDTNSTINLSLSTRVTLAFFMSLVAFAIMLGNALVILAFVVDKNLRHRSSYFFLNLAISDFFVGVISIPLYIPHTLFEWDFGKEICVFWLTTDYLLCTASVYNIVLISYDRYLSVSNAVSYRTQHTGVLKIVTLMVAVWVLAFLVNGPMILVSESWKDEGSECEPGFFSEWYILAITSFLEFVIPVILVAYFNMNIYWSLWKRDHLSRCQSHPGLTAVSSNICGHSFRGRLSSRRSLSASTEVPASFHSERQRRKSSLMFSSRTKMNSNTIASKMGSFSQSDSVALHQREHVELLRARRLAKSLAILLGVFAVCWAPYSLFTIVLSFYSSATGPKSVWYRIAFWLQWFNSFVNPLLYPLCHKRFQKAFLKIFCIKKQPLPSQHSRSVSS

What is called Ki is a dissociation constant, usually derived from enzyme kinetics or from competition with a known ligand. Take `CN1CCN(c2nc(NCCS(=O)(=O)Nc3ccc(I)cc3)c3cc(Cl)ccc3n2)CC1` [Example 8, 2-(6-chloro-2-(4-methylpiperazin-1-yl)quinazoline-4-amino)-N-(4-iodophenyl)ethanesulfonamide]: the Ki is below 1 µM.
The same measure for `CN1CCN(c2nc(NCCS(=O)(=O)Nc3ccccc3)c3cc(Cl)c(Cl)cc3n2)CC1` [Example 12, 2-(6,7-dichloro-2-(4-methylpiperazin-1-yl)quinazoline-4-amino)-N-phenylethanesulfonamide]: below 1 µM; for `CN1CCN(c2nc(NCCS(=O)(=O)Nc3ccccc3)c3cc(Cl)cc(Cl)c3n2)CC1` [Example 14]: below 1 µM.
On to `CN1CCN(c2nc(NCCS(=O)(=O)Nc3ccccc3)c3ccc(Cl)c(Cl)c3n2)CC1` [Example 16, 2-(7,8-dichloro-2-(4-methylpiperazin-1-yl)quinazoline-4-amino)-N-phenylethanesulfonamide], for which the inhibition constant (Ki) is below 1 µM.
To `CN1CCN(c2nc(NCCS(=O)(=O)Nc3ccccc3)c3c(Cl)cc(Cl)cc3n2)CC1` [Example 17, 2-(5,7-dichloro-2-(4-methylpiperazin-1-yl)quinazoline-4-amino)-N-phenylethanesulfonamide] belongs below 1 µM.
